The source made the active and inactive calls. Rule as the data show it, for most assays here: actives have a measured EC50 and inactives only a lower limit.
Columns and labels:
[1] = biological target: T1, Rac GTPase-activating protein 1 (Homo sapiens, UniProt Q9H0H5); assay: blockers of MgcRacGAP-driven Rac1 GTP hydrolysis – biochemical, ADP Hunter fluorescence, primary and confirmatory, confirmation (AID 624330); format: functional
T1 sequence (Q9H0H5 whole entry): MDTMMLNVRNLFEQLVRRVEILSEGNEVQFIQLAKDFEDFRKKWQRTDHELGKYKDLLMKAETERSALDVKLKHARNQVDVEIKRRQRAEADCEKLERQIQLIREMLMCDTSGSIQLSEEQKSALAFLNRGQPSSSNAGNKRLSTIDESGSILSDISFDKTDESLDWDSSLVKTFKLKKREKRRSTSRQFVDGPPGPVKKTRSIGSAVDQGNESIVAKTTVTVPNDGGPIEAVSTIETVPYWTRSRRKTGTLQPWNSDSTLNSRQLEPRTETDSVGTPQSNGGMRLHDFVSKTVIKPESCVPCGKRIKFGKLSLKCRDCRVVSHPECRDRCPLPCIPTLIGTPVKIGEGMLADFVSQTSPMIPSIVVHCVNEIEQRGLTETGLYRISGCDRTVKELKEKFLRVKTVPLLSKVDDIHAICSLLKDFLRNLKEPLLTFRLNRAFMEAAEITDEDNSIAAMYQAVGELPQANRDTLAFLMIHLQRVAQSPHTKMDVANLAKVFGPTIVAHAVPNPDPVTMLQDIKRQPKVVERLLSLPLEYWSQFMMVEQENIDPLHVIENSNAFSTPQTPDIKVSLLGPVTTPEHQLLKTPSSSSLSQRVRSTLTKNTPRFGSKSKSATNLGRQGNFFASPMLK

[2] = biological target: T2, RNA-binding protein pos-1 (Caenorhabditis elegans, UniProt G5EF15); assay: disruptors of C. elegans POS-1 RNA interaction – biochemical, fluorescence polarization, dose response (AID 1964);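 also: purified POS-1 fused to maltose binding protein made in E. coli; potency of compounds blocking POS-1 binding to fluorescent RNA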
T2 sequence (G5EF15 whole entry): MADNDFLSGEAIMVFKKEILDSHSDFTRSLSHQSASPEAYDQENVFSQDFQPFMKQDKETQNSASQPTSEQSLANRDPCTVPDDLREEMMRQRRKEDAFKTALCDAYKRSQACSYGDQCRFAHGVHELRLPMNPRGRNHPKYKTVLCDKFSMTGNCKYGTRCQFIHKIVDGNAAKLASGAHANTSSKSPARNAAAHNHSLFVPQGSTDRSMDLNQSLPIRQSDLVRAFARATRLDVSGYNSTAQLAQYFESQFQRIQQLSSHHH

[3] = biological target: T3, Zinc finger protein mex-5 (Caenorhabditis elegans, UniProt Q9XUB2); assay: potency of MEX-5 RNA-binding blockers – biochemical, C. elegans, fluorescence polarization, dose response (AID 1960)
T3 sequence (Q9XUB2 whole entry): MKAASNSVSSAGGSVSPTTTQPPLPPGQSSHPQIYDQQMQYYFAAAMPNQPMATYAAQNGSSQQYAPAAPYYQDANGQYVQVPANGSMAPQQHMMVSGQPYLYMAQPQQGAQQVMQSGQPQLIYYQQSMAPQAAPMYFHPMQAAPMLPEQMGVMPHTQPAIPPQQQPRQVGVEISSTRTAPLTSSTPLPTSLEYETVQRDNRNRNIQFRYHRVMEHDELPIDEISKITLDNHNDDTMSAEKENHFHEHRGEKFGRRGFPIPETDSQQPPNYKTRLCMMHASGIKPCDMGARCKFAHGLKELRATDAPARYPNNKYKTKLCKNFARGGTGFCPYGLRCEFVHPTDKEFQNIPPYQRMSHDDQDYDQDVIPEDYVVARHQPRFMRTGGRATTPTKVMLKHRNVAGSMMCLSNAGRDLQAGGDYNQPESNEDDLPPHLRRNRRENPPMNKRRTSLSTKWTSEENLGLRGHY

[4] = Luminescence Cell-Based Dose Response HTS to Identify Activators of Luciferase Translation or Activity in H4 […] Cells. [Related pubchem assays: 1829 (Project Summary), 1814 (Primary HTS)]; format: functional
[5] = Luminescence Cell-Based Dose Confirmation HTS to Identify Activators of 5'UTR Stem-Loop Driven Alpha-Synuclein mRNA Translation in H4 Neuroglioblastoma Cells. [Related pubchem assays: 1829 (Project Summary), 1814 (Primary HTS)]; format: functional
[6] = tested on: H4; assay: Luminescence Cell-Based Dose Response HTS to Identify Activators of 5'UTR Stem-Loop Driven Prion Protein mRNA Translation in H4 Neuroglioblastoma Cells. [Related pubchem assays: 1829 (Project Summary), 1814 (Primary HTS)]; format: functional; conditions: Homo sapiens
[7] = fluconazole-exposed Candida albicans growth modulators – fluorescence, retest, confirmation (AID 2467); format: functional, cell-based
[8] = NIH-3T3 fibroblast cytotoxicity, dose response, cytotoxicity control, cell-based, fluorescence, Alamar Blue, secondary assay (AID 2327); format: functional;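 also: NIH-3T3 mouse fibroblasts cultured with fluconazole at 8 µg/mL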
[9] = Luminescence Cell-Based Dose Retest to Confirm Inhibitors of Cancer Stem Cells. [Related pubchem assays (depositor defined):AID2717, AID2721]; format: functional; conditions: Homo sapiens
[10] = P. falciparum Dd2 growth inhibitors, dose response, SYBR Green, cherry-picked samples (AID 1159567); format: functional, cell-based
[11] = biological target: Luciferin 4-monooxygenase (Photinus pyralis, UniProt P08659); assay: inhibition of purified Photinus pyralis luciferase – biochemical, luminescence, dose response (AID 1891)
Sequence of Luciferin 4-monooxygenase (P08659 whole entry): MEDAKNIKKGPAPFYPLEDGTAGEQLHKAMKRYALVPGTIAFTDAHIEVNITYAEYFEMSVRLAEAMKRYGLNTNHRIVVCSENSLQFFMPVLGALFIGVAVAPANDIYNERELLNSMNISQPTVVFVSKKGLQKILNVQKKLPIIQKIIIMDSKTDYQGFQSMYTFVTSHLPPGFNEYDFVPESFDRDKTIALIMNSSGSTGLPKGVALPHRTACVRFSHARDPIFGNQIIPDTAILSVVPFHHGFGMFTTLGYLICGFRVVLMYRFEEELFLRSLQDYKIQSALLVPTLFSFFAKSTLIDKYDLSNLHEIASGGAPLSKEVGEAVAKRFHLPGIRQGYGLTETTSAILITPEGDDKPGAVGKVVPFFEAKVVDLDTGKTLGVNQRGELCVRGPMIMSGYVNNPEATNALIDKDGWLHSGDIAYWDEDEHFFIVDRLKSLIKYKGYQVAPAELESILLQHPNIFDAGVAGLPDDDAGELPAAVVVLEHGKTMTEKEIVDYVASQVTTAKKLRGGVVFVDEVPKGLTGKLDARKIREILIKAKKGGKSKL

[12] = Luminescence Cell-Based Dose Confirmation HTS to Identify Inhibitors of Platelet Dense Granule Release. [Related pubchem assays: 1663 (Primary HTS), 1678 (Summary of Project)]; format: functional
[13] = microbe, parasite or virus in culture; format: functional; conditions: Mycobacterium tuberculosis
[14] = viability of uninfected HEp-2 cells – cell-based, HTS, cytotoxicity control for RSV inhibitor project, dose response (AID 2410); format: functional; conditions: human respiratory syncytial virus
[15] = biological target: FAD-linked sulfhydryl oxidase ALR (Homo sapiens, UniProt P55789); assay: ALR-catalysed DTT oxidation blockers – biochemical, H2O2 detection, luminescence, cherry-pick, dose response (AID 493248)
Sequence of FAD-linked sulfhydryl oxidase ALR (P55789 whole entry): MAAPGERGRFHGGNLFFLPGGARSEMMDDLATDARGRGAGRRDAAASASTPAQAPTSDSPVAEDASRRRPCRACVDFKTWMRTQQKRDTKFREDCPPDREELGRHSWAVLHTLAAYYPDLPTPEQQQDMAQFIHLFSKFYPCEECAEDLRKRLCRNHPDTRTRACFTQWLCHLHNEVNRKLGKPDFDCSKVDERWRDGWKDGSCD

Structure (SMILES): CCOCCCNCC(=O)NCC1CCCCC1
- IC50 [1]: 141 µM (active)

Structure (SMILES): COc1cccc(C(=O)Nc2cc3c(cc2N2CCCC2)n(C)c(=O)n3C)c1
- IC50 [1]: 156 µM (active)

Structure (SMILES): Cc1[n-][o+]nc1OCCNCCNc1ccc([N+](=O)[O-])c2cccnc12
- EC50 [2]: 120 µM (active)
- EC50 [3]: 18.6 µM (active)

Structure (SMILES): Cc1cccc(OCC(=O)NC(C)C(=O)N/N=C/c2c(OCc3ccccc3)ccc3ccccc23)c1 (stereo unspecified)
- EC50 [4]: 39.7 µM (active)
- EC50 [5]: 9.47 µM (active)
- EC50 [6]: 33.5 µM (active)

Structure (SMILES): O=C(/C=C/c1ccccc1)NNc1ccc(Cl)cc1
- EC50 [7]: 2.71 µM (active)
- EC50 [8]: 28.1 µM (inconclusive)
- AC50 [9]: 5.85 µM (active)

Structure (SMILES): NC(=S)n1[nH]c(-c2ccccc2)c(N=Nc2ccccc2C(=O)N2CCOCC2)c1=O
- EC50 [7]: 7.72 µM (active)
- EC50 [8]: > 150 µM (inactive)

Structure (SMILES): O=C1c2ccccc2C(=O)N1CCN1CCc2ccccc21
- EC50 [4]: 17.9 µM (active)
- EC50 [5]: 13.7 µM (active)
- EC50 [6]: 30.3 µM (active)

Structure (SMILES): CN(C)c1ccc2c(c1)[C@@H]1C[C@@H](CC(=O)N3CCc4ccccc4C3)O[C@@H](CO)[C@@H]1O2
- AC50 [10]: 9.12 µM (active)

Structure (SMILES): CO[C@H]1CN(C)C(=O)c2cc(NC(=O)c3ccc(F)cc3)ccc2OC[C@H](C)N(C(=O)c2ccc(F)cc2)C[C@H]1C
- AC50 [10]: 6.03 µM (active)

Structure (SMILES): C[C@H]1CN([C@@H](C)CO)S(=O)(=O)c2ccc(C#Cc3ccccc3)cc2O[C@@H]1CN(C)C(=O)C1CC1
- AC50 [10]: 5.43 µM (active)

Structure (SMILES): CC1CCCCN1Cc1cccnc1 (stereo unspecified)
- IC50 [1]: 109 µM (active)

Structure (SMILES): CCc1ccc(N2CC(C(=O)N/N=C/c3cc([N+](=O)[O-])ccc3O)CC2=O)cc1 (stereo unspecified)
- EC50 [7]: > 38 µM (not active)
- EC50 [8]: 23.1 µM (active)

Structure (SMILES): CC1=CC(C)(C)N2C(=O)C3(C(C#N)=C(N)OC4=C3C(=O)CC(C)(C)C4)c3cc(C)cc1c32 (stereo unspecified)
- EC50 [2]: > 300 µM (not active)
- EC50 [3]: > 300 µM (not active)

Structure (SMILES): COCCCNC(=O)CCC(=O)NNc1nc2ccccc2c2nc(C)nn12
- EC50 [2]: > 300 µM (not active)
- EC50 [3]: 1.13 µM (active)

Structure (SMILES): Cc1c([N+](=O)[O-])c(C(=O)Nc2ccc3c(c2)OCCO3)nn1C
- EC50 [4]: 11 µM (active)
- EC50 [5]: 17.1 µM (active)
- EC50 [6]: 9.3 µM (active)

Structure (SMILES): COc1cc(C2CC(=O)Nc3[nH]nc(-c4ccccc4)c32)cc(OC)c1OC (stereo unspecified)
- EC50 [4]: > 120 µM (not active)
- EC50 [5]: > 120 µM (not active)
- EC50 [6]: > 120 µM (not active)

Structure (SMILES): COc1ccccc1CNC(=O)C[C@H]1C[C@@H]2c3cc(NC(=O)Nc4ccc(C(F)(F)F)cc4)ccc3O[C@@H]2[C@@H](CO)O1
- AC50 [10]: 8.47 µM (active)

Structure (SMILES): CC(C)=C(NC(=O)c1ccccc1)C(=O)N/N=C/c1ccc(O)cc1
- EC50 [11]: > 112 µM (not active)
- EC50 [12]: > 112 µM (not active)
- EC50 [4]: 11.8 µM (active)
- IC50 [1]: 102 µM (active)
- EC50 [5]: 11.3 µM (active)
- EC50 [6]: 8.89 µM (active)

Structure (SMILES): Cc1nn(-c2ccc(Cl)nn2)c(=O)c2ccccc12
- EC50 [4]: 14.4 µM (active)
- EC50 [5]: 12.5 µM (active)
- EC50 [6]: 16.4 µM (active)

Structure (SMILES): CCOc1ccc2nc(N=C(N)N=C(S)Nc3cccc(C)c3)nc(C)c2c1
- CC50 [13]: > 40 µM (active)

Structure (SMILES): CN1C[C@H]2[C@@H](c3ccccc31)[C@H](CO)N2Cc1ccccc1F
- AC50 [10]: 8.06 µM (active)

Structure (SMILES): O=C1C2=C(SCCS2)C(=O)N1c1ccccc1
- EC50 [2]: > 300 µM (not active)
- EC50 [3]: > 300 µM (not active)

Structure (SMILES): C=CCC1(CC=C)CCCN1C(=O)C1CCC(=O)N(CCc2ccc(OC)cc2)C1 (stereo unspecified)
- EC50 [4]: 10.4 µM (active)
- EC50 [5]: 6.13 µM (active)
- EC50 [6]: 96 µM (active)

Structure (SMILES): Cc1nc(NC(=O)CC(C)C)sc1-c1csc(Nc2ccc(Cl)cc2Cl)n1
- AC50 [9]: 1.85 µM (active)
- CC50 [14]: 22.9 µM (active)
- CC50 [13]: > 40 µM (active)

Structure (SMILES): CCN(CC)CC(=O)NN(Cc1ccccc1)c1ccccc1
- IC50 [1]: 108 µM (active)

Structure (SMILES): CC(C)c1ccc(N(C(=O)c2ccco2)C(C(=O)NC2CCCC2)c2ccncc2)cc1 (stereo unspecified)
- EC50 [4]: 50.3 µM (active)
- EC50 [5]: 22.1 µM (active)
- EC50 [6]: > 120 µM (not active)

Structure (SMILES): CC1CCCCC1NC(=O)/C=C/c1nc2ccccc2s1 (stereo unspecified)
- EC50 [4]: 17.2 µM (active)
- EC50 [5]: 15.9 µM (active)
- EC50 [6]: 16.2 µM (active)

Structure (SMILES): O=C(CCN1CCN(C(c2ccccc2)c2ccccc2)CC1)N/N=C/c1ccc(O)cc1
- IC50 [1]: 88.2 µM (active)
- AC50 [15]: 1.6 µM (active)

Structure (SMILES): CC(=O)N1CCN(c2ccc(NCc3ccco3)cc2)CC1
- IC50 [1]: 14.6 µM (active)

Structure (SMILES): Cc1nc(-c2nc(-c3c(C(=O)NNC(=O)c4ccc(Cl)cc4)noc3C)cs2)cs1
- CC50 [13]: > 40 µM (active)

Structure (SMILES): COC(=O)c1cn(CC(=O)NC2CCCCC2)c2ccccc12
- EC50 [7]: > 38 µM (not active)
- EC50 [8]: > 150 µM (inactive)

Structure (SMILES): N#Cc1ccc(OCC(O)CN2CCN(c3ncc(C(F)(F)F)cc3Cl)CC2)cc1 (stereo unspecified)
- CC50 [13]: > 40 µM (active)

Structure (SMILES): Cc1cccc(NC(=O)c2nc[nH]c2C(=O)N[C@H](C)c2ccccc2)c1
- AC50 [9]: 6.42 µM (active)
- CC50 [13]: 36.9 µM (active)

Structure (SMILES): Oc1ccc(Cl)cc1C1=NNC(c2cc(Br)cc3c2OCOC3)C1 (stereo unspecified)
- EC50 [7]: > 38 µM (not active)
- EC50 [8]: > 160 µM (inactive)

Structure (SMILES): O=C(Nc1cccc(F)c1)c1ccc2ncsc2c1
- EC50 [7]: 3.17 µM (active)
- EC50 [8]: > 150 µM (inactive)

Structure (SMILES): O=C(c1ccccc1)N1CC[C@@H]2[C@@H](CO)Nc3ccc(-c4ccc(F)cc4)cc3[C@@H]21
- AC50 [10]: 5.45 µM (active)

Structure (SMILES): Cc1cccc(-c2nc(C#N)c(N3CCCCC3)o2)c1
- EC50 [4]: 20 µM (active)
- EC50 [5]: 10 µM (active)
- EC50 [6]: 3.9 µM (active)

Structure (SMILES): N#Cc1ccc(-c2ccc(OCC3CNC(=O)O3)cc2)cc1 (stereo unspecified)
- EC50 [4]: 36.9 µM (active)
- EC50 [5]: 0.187 µM (active)
- EC50 [6]: 11.3 µM (active)

Structure (SMILES): Nc1ccc2ccc(O)cc2c1
- IC50 [1]: 36.7 µM (active)

Structure (SMILES): CO[C@H]1O[C@H](CBr)[C@@H](OC(=O)c2ccccc2)[C@H](O)[C@H]1O
- EC50 [2]: > 300 µM (not active)
- EC50 [3]: > 300 µM (not active)

Source: ChEMBL document CHEMBL1201862, “PubChem BioAssay data set” (2004)
